For data set [1], the system named is murine neuroblastoma neuro-2A cells. As to conditions: read-out: Neurotoxicity on neuro-2A cells (IC50); cited from earlier work.
Data set [2] is described as follows: Neurotoxicity test, MTT-dye reduction assay on neuro-2A cells. As to conditions: mouse, neuro-2A neuroblastoma cells, 72 h incubation. The format is cell-based, murine. On the procedure: The cytotoxicity of compound 8 was tested on neuro-2A cells as described in the Materials and Мethods section.
To assess the neurocytotoxicity of the selected compound, murine neuroblastoma neuro-2A cells (German collection DSMZ, Braunschweig, Germany) were used. They were cultivated under standard conditions: complete medium (90% DMEM, 10% heat-inactivated FBS, and non-essential amino acids); 37 °C and 5% CO2 in a fully humidified atmosphere. The cell line was kept in the logarithmic growth phase by splitting 1:4 once a week using trypsin/EDTA. About 30% of the cells grew like neuronal cells. For the experimental evaluation of the cytotoxicity, the cells were plated in 96-well flat-bottomed plates at the recommended density of around 1100 cells/25 cm^2. After 24 h, the cells were treated with a series of concentrations (100, 50, 25, 12.5, 6.25 µM) of the tested compound, and after 72 h incubation, an MTT-dye reduction assay was performed. MTT stock solution (10 mg/mL in PBS) was added (0.01 mL/well) at the end of incubation. Plates were further incubated at 37 °C for 4 h. Next, the formazan crystals were dissolved by the addition of 0.110 mL/well 5% formic acid in 2-propanol (v/v). Absorption was measured at 580 nm wavelength on an automated ELISA reader Labexim LMR1. […]

For data set [3], the target named is T1, acetylcholinesterase from Electrophorus electricus (eeAChE) (Electrophorus electricus, UniProt O42275).
T1 construct: purchased Sigma-Aldrich
As to the kind of experiment: biochemical. It is filed as biochemical. As to the method:
However, the docking simulations were conducted on human AChE (rhAChE).
The microplate assay used for measuring AChE inhibitory activity was as described by Ellman with the modifications added by López. Acetylthiocholine iodide (ATCI) in a solution with 5,5′-dithiobis(2-nitrobenzoic acid) (DTNB) was used as a substrate for the acetylcholinesterase from Electrophorus electricus (Steinheim, Sigma-Aldrich, Germany). 50 μL of AChE (0.25 U/mL) dissolved in phosphate buffer (8 mM K2HPO4, 2.3 mM NaH2PO4, 0.15 M NaCl, pH 7.5) and 50 μL of the sample dissolved in the same buffer were added to the wells. The plates were incubated for 30 min at room temperature before the addition of 100 μL of the substrate solution (0.04 M Na2HPO4, 0.2 mM DTNB, 0.24 mM ATCI, pH 7.5). […] Enzyme activity was calculated as an inhibition percentage compared to an assay using a buffer without any inhibitor. […] The AChE inhibitory data were analyzed with the software package Prism 9 (GraphPad Inc., San Diego, USA). The IC50 values were measured in triplicate, and the results are presented as means ± SD.

Values joined by “and” are separate entries in the source; they are usually repeats but may differ in a detail not shown here. Equal entries are not always repeated.

In general, IC50 refers to the concentration at which inhibition is half-maximal.

T1 sequence (O42275 24-633): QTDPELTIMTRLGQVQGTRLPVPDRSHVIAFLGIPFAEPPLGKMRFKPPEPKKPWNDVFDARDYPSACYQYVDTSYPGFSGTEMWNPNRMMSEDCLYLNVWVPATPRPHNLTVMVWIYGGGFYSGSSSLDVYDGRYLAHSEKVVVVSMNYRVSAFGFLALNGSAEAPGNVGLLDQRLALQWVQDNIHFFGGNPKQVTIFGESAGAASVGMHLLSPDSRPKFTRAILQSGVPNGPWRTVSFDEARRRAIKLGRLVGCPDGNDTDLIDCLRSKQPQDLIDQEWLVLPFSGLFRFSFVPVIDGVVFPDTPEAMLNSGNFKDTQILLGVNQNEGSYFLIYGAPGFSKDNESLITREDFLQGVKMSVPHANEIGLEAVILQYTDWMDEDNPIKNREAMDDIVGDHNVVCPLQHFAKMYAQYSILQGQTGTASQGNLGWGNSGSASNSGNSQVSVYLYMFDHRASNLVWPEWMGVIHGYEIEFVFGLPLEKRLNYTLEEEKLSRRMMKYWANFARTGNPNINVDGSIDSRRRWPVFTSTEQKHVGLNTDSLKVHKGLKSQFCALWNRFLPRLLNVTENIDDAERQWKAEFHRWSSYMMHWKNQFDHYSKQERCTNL

As for `COc1ccc2c3c1O[C@H]1C[C@@H](O)C=C[C@@]31CCN(C)C2` [GAL, Galantamine], the IC50 in data set [1] was over 50000 nM.

The compound `COc1ccc2c3c1O[C@H]1C[C@@H](O)C=C[C@@]31CCN(CCNC(=O)CCc1ccccc1-c1ccccc1)C2` [Compound 8, 3-(biphenyl-2-yl)-N-{2-[(4aS,6R,8aS)-6-hydroxy-3-methoxy-5,6,9,10-tetrahydro-4aH-[1]benzofuro[3a,3,2-ef][2]benzazepin-11(12H)-yl]ethyl}propanamide] came in with an IC50 at 72 h in data set [2] of over 100000 nM. For the same compound, in data set [3], the “Times more active than GAL (AChE inhibition)” value was determined as 68 times. In addition, in data set [3] (eeAChE, Ellman's method, 30 min preincubation, mean ± SD, triplicate, read-out: Inhibitory activity on eeAChE (IC50)), the IC50 is 28 nM and 27.8 nM.

Values taken from paper PMC8038331, “Discovery of a Novel Acetylcholinesterase Inhibitor by Fragment-Based Design and Virtual Screening” (Molecules, 2021).
